Reference: ChEMBL document CHEMBL5120919, “Micrococcin P2 Targets Clostridioides difficile” (J Nat Prod, 2022)
In brackets after ≈: the same amount, converted by molar mass. Activity calls are given as the source filed them. No cut-off for these calls is given here.

Tests used:
[1] = tested on: Clostridioides difficile; test: Antibacterial activity against Clostridioides difficile RT018/ST17 clinical isolate expressing A+B+ toxin assessed as inhibition of bacterial growth incubated for 24 hrs by CLSI based agar dilution method; format: functional
[2] = tested on: Clostridioides difficile; test: Antibacterial activity against Clostridioides difficile RT001/ST3 clinical isolate expressing A+B+ toxin assessed as inhibition of bacterial growth incubated for 24 hrs by CLSI based agar dilution method; format: functional
[3] = tested on: Clostridioides difficile; test: Antibacterial activity against Clostridioides difficile RT014/ST14 clinical isolate expressing A+B+ toxin assessed as inhibition of bacterial growth incubated for 24 hrs by CLSI based agar dilution method; format: functional
[4] = tested on: Clostridioides difficile; test: Antibacterial activity against Clostridioides difficile RT015/ST35 clinical isolate expressing A+B+ toxin assessed as inhibition of bacterial growth incubated for 24 hrs by CLSI based agar dilution method; format: functional
[5] = tested on: Clostridioides difficile; test: Antibacterial activity against Clostridioides difficile RT027/ST1 clinical isolate expressing A+B+CDT+ toxin assessed as inhibition of bacterial growth incubated for 24 hrs by CLSI based agar dilution method; format: functional
[6] = tested on: Clostridioides difficile; test: Antibacterial activity against Clostridioides difficile RT017/ST37 clinical isolate expressing A-B+ toxin assessed as inhibition of bacterial growth incubated for 24 hrs by CLSI based agar dilution method; format: functional
[7] = tested on: Clostridioides difficile; test: Antibacterial activity against Clostridioides difficile RT012/ST54 clinical isolate expressing A+B+ toxin assessed as inhibition of bacterial growth incubated for 24 hrs by CLSI based agar dilution method; format: functional
[8] = tested on: Clostridioides difficile; test: Antibacterial activity against Clostridioides difficile RT130/ST5 clinical isolate expressing A+B+CDT+ toxin assessed as inhibition of bacterial growth incubated for 24 hrs by CLSI based agar dilution method; format: functional
[9] = tested on: Clostridioides difficile; test: Antibacterial activity against Clostridioides difficile RT027 assessed as reduction in bacterial count at 5 ug/ml measured after 24 hrs by CLSI based time kill curve assay; format: functional; settings: dose 5 µg/ml
[10] = tested on: Clostridioides difficile; test: Antibacterial activity against Clostridioides difficile ST221 clinical isolate expressing A+B+CDT+ toxin assessed as inhibition of bacterial growth incubated for 24 hrs by CLSI based agar dilution method; format: functional
[11] = tested on: Clostridioides difficile; test: Antibacterial activity against Clostridioides difficile RT078/ST11 clinical isolate expressing A+B+CDT+ toxin assessed as inhibition of bacterial growth incubated for 24 hrs by CLSI based agar dilution method; format: functional
[12] = tested on: Clostridioides difficile; test: Antibacterial activity against Clostridioides difficile RT002/ST8 clinical isolate expressing A+B+ toxin assessed as inhibition of bacterial growth incubated for 24 hrs by CLSI based agar dilution method; format: functional
[13] = tested on: Clostridioides difficile; test: Antibacterial activity against Clostridioides difficile RT293/ST129 clinical isolate expressing A+B+ toxin assessed as inhibition of bacterial growth incubated for 24 hrs by CLSI based agar dilution method; format: functional
[14] = Clearance in Sprague-Dawley rat at 10 mg/kg, po measured up to 8 hrs by LC-MS/MS analysis; format: ADME, organism-based; settings: in vivo, BLD = below limit of detection
[15] = MRT in Sprague-Dawley rat at 10 mg/kg, po measured up to 8 hrs by LC-MS/MS analysis; format: ADME, organism-based; settings: in vivo, BLD = below limit of detection
[16] = Volume of distribution at steady state in Sprague-Dawley rat at 10 mg/kg, po measured up to 8 hrs by LC-MS/MS analysis; format: ADME, organism-based; settings: in vivo, BLD = below limit of detection
[17] = Half life in Sprague-Dawley rat at 2 mg/kg, iv measured up to 8 hrs by LC-MS/MS analysis; format: ADME, organism-based; settings: in vivo
[18] = tested on: SH-SY5Y; test: Cytotoxicity against human SH-SY5Y cells assessed as reduction in cell viability at 40 uM incubated for 48 hrs by CCK-8 assay; format: toxicity, cell-based
[19] = Volume of distribution at steady state in Sprague-Dawley rat at 2 mg/kg, iv measured up to 8 hrs by LC-MS/MS analysis; format: ADME, organism-based; settings: in vivo, read-out: Vdss
[20] = tested on: Clostridioides difficile; test: Antibacterial activity against Clostridioides difficile RT027 infected in DSS-induced IBD C57BL/6 mouse model assessed as survival rate at 30 mg/kg, po administered once daily for 5 days; format: functional; settings: time 5 day
[21] = tested on: HEK-293T; test: Cytotoxicity against HEK293T cells assessed as reduction in cell viability at 40 uM incubated for 48 hrs by CCK-8 assay; format: toxicity, cell-based; settings: human
[22] = Half life in Sprague-Dawley rat at 10 mg/kg, po measured up to 8 hrs by LC-MS/MS analysis; format: ADME, organism-based; settings: in vivo, BLD = below limit of detection
[23] = tested on: RAW264.7; test: Antiinflammatory activity in mouse RAW264.7 cells assessed as decrease in LPS induced IL-1beta expression in supernatant at 5 to 40 uM measured after 24 hrs by ELISA; format: functional, cell-based; settings: dose 5-40 µM
[24] = Clearance in Sprague-Dawley rat at 2 mg/kg, iv measured up to 8 hrs by LC-MS/MS analysis; format: ADME, organism-based; settings: in vivo
[25] = tested on: Clostridioides difficile; test: Antibacterial activity against Clostridioides difficile RT027 assessed as reduction in bacterial count at 1 to 4 times MIC measured after 24 hrs by CLSI based time kill curve assay; format: functional
[26] = tested on: Clostridioides difficile; test: Antibacterial activity against Clostridioides difficile RT027 assessed as regrowth of bacteria at 0.5 times MIC measured after 6 hrs by CLSI based time kill curve assay; format: functional, organism-based
[27] = AUClast in Sprague-Dawley rat at 2 mg/kg, iv measured up to 8 hrs by LC-MS/MS analysis; format: ADME, organism-based; design: time < 8 hrs, dose 2 mg/kg, route iv; settings: in vivo
[28] = MRT in Sprague-Dawley rat at 2 mg/kg, iv measured up to 8 hrs by LC-MS/MS analysis; format: ADME, organism-based; settings: in vivo
[29] = tested on: RAW264.7; test: Antiinflammatory activity in mouse RAW264.7 cells assessed as decrease in LPS induced IL6 expression in supernatant at 5 to 40 uM measured after 24 hrs by ELISA; format: functional, cell-based; settings: dose 5-40 µM

What does the source list for `CN[C@H](CC(C)C)C(=O)N[C@H]1C(=O)N[C@@H](CC(N)=O)C(=O)N[C@H]2C(=O)N[C@H]3C(=O)N[C@H](C(=O)N[C@H](C(=O)O)c4cc(O)cc(O)c4-c4cc3ccc4O)[C@H](O)c3ccc(c(Cl)c3)Oc3cc2cc(c3O[C@@H]2O[C@H](CO)[C@@H](O)[C@H](O)[C@H]2O[C@H]2C[C@](C)(N)[C@H](O)[C@H](C)O2)Oc2ccc(cc2Cl)[C@H]1O` [VANCOMYCIN]?
MIC [1]: 0.5 µg/mL (≈ 0.345 µM); MIC [2]: 1 µg/mL (≈ 0.69 µM); MIC [3]: 1 µg/mL (≈ 0.69 µM); MIC [4]: 1 µg/mL (≈ 0.69 µM); MIC [5]: 0.5 µg/mL (≈ 0.345 µM); MIC [6]: 0.5 µg/mL (≈ 0.345 µM); MIC [7]: 1 µg/mL (≈ 0.69 µM); MIC [8]: 0.5 µg/mL (≈ 0.345 µM); Activity [9]: 1.5 log10CFU; MIC [10]: 1 µg/mL (≈ 0.69 µM); MIC [11]: 1 µg/mL (≈ 0.69 µM); MIC [12]: 1 µg/mL (≈ 0.69 µM); MIC [13]: 1 µg/mL (≈ 0.69 µM)

Which MIC [1] does the source give for `C/C=C(\NC(=O)c1csc(-c2csc(-c3ccc4c(n3)-c3csc(n3)[C@H]([C@@H](C)O)NC(=O)c3csc(n3)[C@H](C(C)C)NC(=O)c3csc(n3)/C(=C/C)NC(=O)[C@H]([C@@H](C)O)NC(=O)c3csc-4n3)n2)n1)C(=O)NCC(C)=O` here?
The MIC was 1 µg/mL (≈ 0.875 µM).

And the MIC [2]?
The MIC was 2 µg/mL (≈ 1.75 µM).

What about the CL [14] of the same compound?
The CL was “Bld”.

What about the MIC [3] of the same compound?
The MIC was 1 µg/mL (≈ 0.875 µM).

And the MIC [4]?
The MIC was 1 µg/mL (≈ 0.875 µM).

What about the MIC [5] of the same compound?
Its MIC is 1 µg/mL (≈ 0.875 µM).

And the MRT [15]?
The MRT was “Bld”.

And the Vdss [16]?
Its Vdss is “Bld”.

What about the half-life [17] of the same compound?
The half-life was 48 min.

And the MIC [6]?
Its MIC is 1 µg/mL (≈ 0.875 µM).

What about the Activity [18] of the same compound?
Its Activity is “Non-Toxic”.

And the Vd [19]?
Its Vd is 2.1 L/kg.

What about the Activity [20] of the same compound?
The Activity was 100%.

What about the Activity [21] of the same compound?
The Activity was “Non-Toxic”.

And the MIC [7]?
Its MIC is 2 µg/mL (≈ 1.75 µM).

And the t1/2 [22]?
The t1/2 was “Bld”.

What about the MIC [8] of the same compound?
Its MIC is 1 µg/mL (≈ 0.875 µM).

What about the Activity [23] of the same compound?
The Activity was “Active”.

What about the clearance [24] of the same compound?
Its clearance is 88.9 mL/min/kg.

And the Activity [25]?
Its Activity is 2.5 log10CFU.

What about the Activity [26] of the same compound?
The Activity was “Active”.

And the AUC(0-t) at 8 h [27]?
Its AUC(0-t) at 8 h is 374 ng·h/mL.

What about the MIC [10] of the same compound?
The MIC was 2 µg/mL (≈ 1.75 µM).

What about the MRT [28] of the same compound?
The MRT was 24 min.

What about the MIC [11] of the same compound?
Its MIC is 1 µg/mL (≈ 0.875 µM).

What about the MIC [12] of the same compound?
The MIC was 1 µg/mL (≈ 0.875 µM).

And the MIC [13]?
Its MIC is 1 µg/mL (≈ 0.875 µM).

What about the Activity [29] of the same compound?
Its Activity is “Active”.
